Results as given in patent US20250144131A1, “POLYSACCHARIDE COMPOUND WITH A DEFINED MOLECULAR STRUCTURE FOR THE TREATMENT OF PULMONARY FIBROSIS” (SHENZHEN YANDAI INVESTMENT CO., LTD, priority 2023, published 2025).
Marks after values point to notes of the source that are not given here.

Key:
[1] = Mortality and body weight of LLC-bearing mice
Experimental: LLC cells in logarithmic growth phase at 1×10^7/mL were inoculated at 0.2 mL into the right axilla of 10 purchased normal male C57 mice. Tumor growth was monitored, and tumor-bearing mice were prepared. Once the tumor volume in tumor-bearing mice exceeded 200 mm^3, the tumor tissue was aseptically harvested to prepare a tissue cell suspension. This was mixed at a 1:1 (V:V) ratio with culture medium to create a tumor tissue homogenate. This homogenate was injected into the right axilla of 60 male C57 mice at 0.2 mL per mouse. When the tumor volume in these tumor-bearing mice exceeded 100 mm^3, mice with well-grown tumors without ulceration were selected and randomized into groups based on tumor volume as follows: model control group, cisplatin group (4 mg/kg), Kanglaite soft capsule group (1,404 mg/kg), cisplatin+Kanglaite soft capsule group (4+1,404 mg/kg), cisplatin+GLP-4 low-dose group (4+130 mg/kg), and cisplatin+GLP-4 high-dose group (4+1,170 mg/kg), with 8 mice per group. Additionally, 8 mice were selected as a normal control group. The cisplatin group received intraperitoneal injections of cisplatin, and the other groups were administered their respective drug solutions by gavage (20 mL/kg) or intraperitoneal injection (10 mL/kg), once daily for 27 consecutive days. After the last dose, blood was collected from the orbital plexus to test blood WBC, RBC, liver and kidney function indicators (ALT, AST, BUN, CRE), and CD3^+, CD4^+, and CD8^+ levels. Bone marrow smears were examined, and spleens, thymuses, and tumors were weighed. Histopathological examinations were conducted on the tumor, spleen, stomach, and kidneys.
Evaluation of quality of life and survival time in animals: Throughout the experimental process, detailed records were kept for each group of animals regarding weight, mortality, mental state, fur color, smoothness of fur, and fecal form, including incidences of diarrhea (if any).

[2] = parameters: species or system C57 mice; settings: mouse, in vivo, 130 mg/kg
Experimental: Spleen and thymus organ coefficients: After the last dose, spleen, thymus, and tumor weights are measured, and organ coefficients are calculated. organ coefficient (%)=organ weight/fasting body weight×100%.

LLC tumors = experiment: Histopathology (H&E) of tumor, spleen, stomach and kidney in LLC-bearing mice; type: in vivo, C57 mice; settings: cisplatin 4, Kanglaite 1404, GLP-4 low-dose 130 mg/kg
From the text: Histopathology examination: After the last dose, tissues from tumors, spleens, stomachs, and kidneys were collected for H&E staining to observe histopathological changes.

[3] = Mortality, survival time and body weight of H22-bearing mice; type: in vivo, C57 mice
Experimental: A homogenate suspension of H22 hepatoma solid tumors was injected subcutaneously under the axilla of 60 healthy male C57 mice to create a solid tumor model. Once all mouse tumors averaged a volume of about 180 mm^3, mice were randomized into groups based on tumor volume and were administered the respective drugs or drug solvents via oral gavage or intraperitoneal injection for 27 consecutive days. Longest and shortest diameters of tumors were measured every three days to calculate tumor volume, and mouse weights were recorded every three days. At the end of the experiment, tumors, spleens, and thymuses were harvested and weighed to calculate tumor, spleen, and thymus indices.

[4] = test system: Liver cancer (H22) cells, orthotopic; experiment: Tumors in orthotopic H22-bearing mice by small animal in vivo imaging; parameters: species or system C57 mice; settings: for Tumor (in vivo imaging): Kanglaite soft capsule 1404 mg/kg
From the text: Liver cancer (H22) cells, labeled with Luc fluorescent marker at a concentration of 1×10^7 cells/mL, were initially inoculated into the peritoneal cavity of 8 male C57 mice. After the development of ascites, the ascitic fluid was aseptically extracted, washed with HBSS buffer, centrifuged to discard the supernatant, and stained with Trypan Blue, and cells in the ascitic fluid were counted under a microscope. The cell concentration was adjusted to […] with HBSS buffer and inoculated into the right hepatic region of 51 male C57 mice, at a volume of 10 μL per mouse, to prepare the orthotopic tumor-bearing mice. One week later, the liver tumor formation in mice was detected using a small animal in vivo imaging system. Based on tumor size, the mice were randomized into groups: model control group, cisplatin group (4 mg/kg), Kanglaite soft capsule group (1,404 mg/kg), cisplatin+Kanglaite soft capsule group (4+1,404 mg/kg), cisplatin+GLP-4 low-dose group (4+130 mg/kg), and cisplatin+GLP-4 high-dose group (4+1,170 mg/kg), with 6 mice per group. An additional 6 mice served as the normal control group. The normal control group and the model control group were administered pure water by oral gavage. The chemotherapy group received intraperitoneal injections of cisplatin, and the other groups were administered their respective drug solutions by oral gavage (20 mL/kg) or intraperitoneal injection (10 mL/kg), once daily for 14 consecutive days. After the last dose, blood was collected from the orbital plexus to test blood WBC, RBC, liver and kidney function indicators (ALT, AST, BUN, CRE), and CD3^+/CD4^+, CD3^+/CD8^+ ratios. The spleen, thymus, and tumors were weighed to calculate organ coefficients.
Tumor volume measurement: Tumor volume changes were measured weekly using small animal in vivo imaging technology.

[5] = test system: CD4+ and CD8+ lymphocyte subtypes; experiment: Blood CD3+/CD4+ and CD3+/CD8+ ratios by flow cytometry in orthotopic H22-bearing mice; type: in vivo, C57 mice; settings: cisplatin 4 mg/kg, Kanglaite soft capsule 1404 mg/kg
Experimental: CD4^+ and CD8^+ content measurement: After the last dose, lymphocyte subtypes CD3^+/CD4^+ and CD3^+/CD8^+ in the blood were measured using flow cytometry.

[6] = Mortality and body weight of 4T1 breast tumor-bearing mice; type: in vivo, BALB/c mice
Experimental: A suspension of 4T1 breast cancer cells was injected subcutaneously into the left shoulder back of 55 healthy female BALB/c mice to create solid tumor models. When the mean tumor volume reached approximately 240 mm^3, the mice were randomized into groups based on tumor volume, and were administered the respective drugs or drug solvents via oral gavage or intraperitoneal injection over 25 consecutive days. Longest and shortest diameters of tumors were measured every three days to calculate tumor volume, and mouse weights were recorded every three days. At the end of the experiment, tumors, spleens, and thymuses were harvested and weighed to calculate tumor, spleen, and thymus indices.

[7] = 8 per group, cisplatin 4, Kanglaite 1404, GLP-4 low-dose 130 mg/kg
[8] = cisplatin 4, Kanglaite 1404, GLP-4 low-dose 130 mg/kg

In the case of `N.N.[Cl][Pt][Cl]` [Cisplatin, cisplatin], the Number of deaths [1, 7] is reported as 0, the “Number of surviving animals” value [1, 7] is reported as 8 and the Weight ([1]; D1, cisplatin 4, Kanglaite 1404, GLP-4 low-dose 130 mg/kg) is reported as 14.1 ± 0.7 g. For the same compound, the Weight ([1]; D4, cisplatin 4, Kanglaite 1404, GLP-4 low-dose 130 mg/kg) was 14.5 ± 1.1 g, the Mortality rate [1, 8] was 0% and the Spleen coefficient [2] was 0.456 ± 0.102 ^ %. For the same compound, the Thymus coefficient [2] was 0.044 ± 0.020 %, the Tumor histopathology (LLC tumors) was “large areas of necrosis and hemorrhage were visible at the tumor center, with abundant tumor cells” and the Number of deaths ([3]; 8 per group, cisplatin 3, GLP-4 low-dose 50 mg/kg) was 0. The Survival time ([3]; 27 days dosing, cisplatin 3, GLP-4 low-dose 50 mg/kg) was 27 ± 0 days, the Weight ([3]; D0, cisplatin 3, GLP-4 low-dose 50 mg/kg) was 22.8 ± 1^+ g and the Weight ([3]; D9, cisplatin 3, GLP-4 low-dose 50 mg/kg) was 22.2 ± 0.7^+ g. For the same compound, the Weight ([3]; D12, cisplatin 3, GLP-4 low-dose 50 mg/kg) was 21.9 ± 0.5^+ g, the Weight ([3]; D15, cisplatin 3, GLP-4 low-dose 50 mg/kg) was 21.3 ± 1*^+ g and the Mortality rate ([3]; cisplatin 3, GLP-4 low-dose 50 mg/kg) was 0%. The “Tumor (in vivo imaging)” value ([4]; W0, cisplatin 4 mg/kg) was 3756000 P/s/cm^2/sr, the “Tumor (in vivo imaging)” value ([4]; W1, cisplatin 4 mg/kg) was 12898500 P/s/cm^2/sr and the “Tumor (in vivo imaging)” value ([4]; W2, cisplatin 4 mg/kg) was 11871333 P/s/cm^2/sr. For the same compound, the “Tumors compared to the model control group (in vivo imaging)” value [4, 8] was “significantly decreased on W2”, the “CD3^+/CD4^+” value [5] was 4.26 ± 0.04 and the “CD3^+/CD8^+” value [5] was 4.21 ± 0.81. It also gave a Number of deaths ([6]; 10 per group, cisplatin 4 mg/kg) of 0, a Survival time ([6]; 25 days of dosing, cisplatin 4 mg/kg) of 25 ± 0 days and a Weight ([6]; D0, cisplatin 4 mg/kg) of 18.3 ± 1.3 g. For the same compound, the Weight ([6]; D3, cisplatin 4 mg/kg) was 17.7 ± 1.1 g, the Weight ([6]; D6, cisplatin 4 mg/kg) was 15.5 ± 1*^ g and the Weight ([6]; D9, cisplatin 4 mg/kg) was 15 ± 1.4 g. It also gave a Weight ([6]; D12, cisplatin 4 mg/kg) of 13.8 ± 0.9 g, a Weight ([6]; D15, cisplatin 4 mg/kg) of 15 ± 1.1 g and a Weight ([6]; D19, cisplatin 4 mg/kg) of 16.8 ± 1.4 g. It also gave a Weight ([6]; D22, cisplatin 4 mg/kg) of 18 ± 1.5 g, a Weight ([6]; D25, cisplatin 4 mg/kg) of 18.1 ± 1.6 g and a Mortality rate ([6]; cisplatin 4 mg/kg) of 0.0%.
